Experimental data from patent US7476691B2, “Sulfamate benzothiophene derivatives as steroid sulfatase inhibitors” (Laboratoire Theramex, priority 2003, dated 2009).
“And” between values parts separate entries of the source, which are not always exact repeats. Equal entries are not always repeated.

Legend:
estrone sulfatase [1] = target: T1, estrone sulfatase (Homo sapiens, UniProt P08842); assay: Estrone sulfatase whole-cell assay on JEG-3 cells; format: cell-based; parameters: The JEG-3 cell line, derived from a human placental choriocarcinoma, is spontaneously very rich in human estrone sulfatase; endogenous in cells; host or cells: JEG-3 (human placental choriocarcinoma), intact cells; conditions: 4 h treatment, 3H-E1S, read-out: IC50 (nM) ± S.E.M., inhibition of estrone sulfatase
T1 sequence (P08842 22-583): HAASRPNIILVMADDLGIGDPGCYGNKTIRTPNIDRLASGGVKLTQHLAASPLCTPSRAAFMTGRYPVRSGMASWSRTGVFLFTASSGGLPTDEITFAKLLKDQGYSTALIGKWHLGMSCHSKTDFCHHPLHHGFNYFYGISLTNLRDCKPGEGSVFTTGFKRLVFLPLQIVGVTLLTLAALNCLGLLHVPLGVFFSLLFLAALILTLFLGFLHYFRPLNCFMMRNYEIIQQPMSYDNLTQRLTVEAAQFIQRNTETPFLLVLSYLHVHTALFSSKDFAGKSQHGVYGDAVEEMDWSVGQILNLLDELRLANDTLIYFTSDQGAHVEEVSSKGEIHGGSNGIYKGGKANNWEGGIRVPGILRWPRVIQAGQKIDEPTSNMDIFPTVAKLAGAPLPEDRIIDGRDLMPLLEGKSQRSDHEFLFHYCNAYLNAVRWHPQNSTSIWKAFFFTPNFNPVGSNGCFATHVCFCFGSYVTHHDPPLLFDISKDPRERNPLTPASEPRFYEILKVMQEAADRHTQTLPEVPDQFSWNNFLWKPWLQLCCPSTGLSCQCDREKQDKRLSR
Protocol: (§1) Two in vitro models on whole cells were used. […] Moreover, these cells were used in the in vivo model of hormono-dependent induced xenografts.
(§2) Estrone Sulfatase Assay on Cells
(§3) Whole-cell assays were performed as originally described by Duncan et al. (Cancer Res., 1993, 53: 298-303) on intact MCF-7 cell monolayers. Assays were carried out with cells in logarithmic growth phase, on 96-well (JEG-3) or 24-well (MCF-7) microplates. Twenty-four hours (JEG-3) or 72 h (MCF-7) before studies, cells were seeded in decomplemented fetal calf serum (dFCS) supplemented medium. Then, the seeding medium was removed and the cells were rinsed with PBS to eliminate any trace of dFCS. Then, ^3H-E1S was added, followed by test compounds ranging from 10^−12 M to 10^−5 M. After 4 h (JEG-3) or 20 h (MCF-7) of treatment, the medium was transferred into either 96-deep-well microplates (JEG-3) or plastic tubes (MCF-7) and centrifuged at 200×g for 10 min to pellet cells before toluene extraction. A fraction of medium was used for toluene extraction in order to separate conjugated substrate and non-conjugated products. The radioactivity in the toluene phase was measured by liquid scintillation counting (LSC). Finally, estrone sulfatase activity was expressed in pmoles of ^3H-E1+^3H-E2 formed per 4 or 20 hours and per μg DNA and estrone sulfatase inhibition in percentage of control activity without inhibitor.

estrone sulfatase [2] = target: T1, estrone sulfatase; assay: Estrone sulfatase whole-cell assay on MCF-7 cells; format: cell-based; parameters: Whole-cell assays were performed as originally described by Duncan et al. (Cancer Res., 1993, 53: 298-303) on intact MCF-7 cell monolayers; endogenous in cells; host or cells: MCF-7 (human breast adenocarcinoma), intact monolayers; conditions: 20 h treatment, 3H-E1S, read-out: IC50 (nM) ± S.E.M., inhibition of estrone sulfatase
Protocol: as §1, §2, §3

[3] = tested on: ovariectomized Wistar female rats; assay: Antiuterotrophic/antisulfatase activity: inhibition of E1S stimulated uterus weight; format: in vivo, rat; conditions: ovariectomized rats, E1S 50 μg/kg/day s.c., compound oral 1 mg/kg/day for 4 days
Protocol: A short model, derived from Purohit's method, was developed for the evaluation in vivo of nonestrogenic steroid sulfatase inhibitors.
Wistar female rats were ovariectomized and left to rest for 4 weeks. Prior to treatment, the absence of cyclicity was checked by vaginal smears.
Animals were supplemented with estrone sulfate (E1S) at 50 μg/kg/day s.c., alone or combined with oral administration of potential sulfatase inhibitors, at 1 mg/kg/day for 4 days. The uteri were removed, freed of adjacent tissue and wet weighed.
The results are expressed as % of inhibition of the E1S induced stimulation.
The activity of Ex 55 on E1S stimulated uterus weight was evaluated in relation to the standard inhibitor 6,6,7 COUMATE from 0.03 mg/kg/day to 1 mg/kg/day p.o.
In this study, a last administration was performed 24 hours before the necropsy for E1S and E2 serum levels assays. The uteri were removed, freed of adjacent tissue, wet weighed and immediately deep frozen until the determination of sulfatase activity.

prepubescent female rats = assay: Residual estrogenic activity in vivo (uterotrophic assay); conditions: prepubescent female rats, oral, 1 mg/rat/day for 3 days
Protocol: These compounds were checked for residual estrogenic activity in vivo in the classical uterotrophic assay after 3-day administration by oral route in prepubescent female rats.
Prepubescent female rats were orally treated at 1 mg/rat/day for 3 days. On the day following the last treatment, uteri were removed and wet weight were recorded.
The results are expressed as % of stimulation of uterus weight in comparison with controls.

| IC50 (estrone sulfatase [1]) | IC50 (estrone sulfatase [2]) [nM] | melting point [°C] | % stimulation of uterus weight in comparison with controls (prepubescent female rats) [%] | Compound | % inhibition of the E1S induced stimulation (uterus weight) [3] [%] |
| --- | --- | --- | --- | --- | --- |
| 78.8 ± 39.8 nM |  | 110 |  | NS(=O)(=O)Oc1ccc2cc(C3CCCC3)sc2c1 [Ex 30, Sulfamic acid, 2-cyclopentyl-benzothiophene-6-yl ester] |  |
| 102 ± 58 nM |  | 132 |  | NS(=O)(=O)Oc1ccc2cc(C3CCCCCC3)sc2c1 [Ex 31, Sulfamic acid, 2-cycloheptyl-benzothiophene-6-yl ester] |  |
| 434 ± 94.8 nM |  | 126 |  | NS(=O)(=O)Oc1ccc2cc(C3CCCCCCC3)sc2c1 [Ex 32, Sulfamic acid, 2-cyclooctyl-benzothiophene-6-yl ester] |  |
| 318 ± 42.9 nM |  | 132 |  | CC1CCC(c2cc3ccc(OS(N)(=O)=O)cc3s2)CC1 (centres unmarked) [Ex 34, Sulfamic acid, 2-(4-methylcyclohexyl)-benzothiophene-6-yl ester] |  |
| 147 ± 16.3 nM |  | 110 |  | CC1CCCCC1c1cc2ccc(OS(N)(=O)=O)cc2s1 (centres unmarked) [Ex 35, Sulfamic acid, 2-(2-methylcyclohexyl)-benzothiophene-6-yl ester] |  |
| 128 ± 14.2 nM |  | 72 |  | CC1(C)CCCC1c1cc2ccc(OS(N)(=O)=O)cc2s1 (centres unmarked) [Ex 36, Sulfamic acid, 2-(2,2-dimethylcyclopentyl)-benzothiophene-6-yl ester] |  |
| 92.4 ± 15.6 nM |  | 185 |  | NS(=O)(=O)Oc1ccc2cc(C3C4CC5CC(C4)CC3C5)sc2c1 (centres unmarked) [Ex 37, Sulfamic acid, 2-(2-adamantyl)-benzothiophene-6-yl ester] |  |
|  |  | 112 |  | CCCc1cc2ccc(OS(N)(=O)=O)cc2s1 [Ex 38, Sulfamic acid, 2-propyl-benzothiophene-6-yl ester] |  |
|  |  | 125 |  | CCCCCCc1cc2ccc(OS(N)(=O)=O)cc2s1 [Ex 39, Sulfamic acid, 2-hexyl-benzothiophene-6-yl ester] |  |
|  |  | 115 |  | NS(=O)(=O)Oc1ccc2cc(CC3CCCCC3)sc2c1 [Ex 40, Sulfamic acid, 2-cyclohexylmethyl-benzothiophene-6-yl ester] |  |
|  |  | 90 |  | NS(=O)(=O)Oc1ccc2cc(CC3CCCCCC3)sc2c1 [Ex 41, Sulfamic acid, 2-cycloheptylmethyl-benzothiophene-6-yl ester] |  |
| 24.7 ± 5 nM |  | 159 |  | CCCC1=Cc2ccc(OS(N)(=O)=O)cc2S1(=O)=O [Ex 52, Sulfamic acid, 2-propyl-benzothiophene-6-yl-1,1-dioxide ester] |  |

The next lines start with the molecule.

| Compound | IC50 (estrone sulfatase [1]) | IC50 (estrone sulfatase [2]) [nM] | melting point [°C] | % stimulation of uterus weight in comparison with controls (prepubescent female rats) [%] | % inhibition of the E1S induced stimulation (uterus weight) [3] [%] |
| --- | --- | --- | --- | --- | --- |
| C[C@]12CCC3c4ccc(OS(N)(=O)=O)cc4CCC3C1CCC2=O (some centres unmarked) [EMATE, estrone-3-sulfamate, reference compound] | 3.2 ± 0.2 nM | 0.06 ± 0.01 |  |  |  |
| NS(=O)(=O)Oc1ccc2cc(C3CCCCCCCCC3)sc2c1 [Ex 33, Sulfamic acid, 2-cyclodecyl-benzothiophene-6-yl ester] | 744 ± 140 nM |  | 98 |  |  |
| NS(=O)(=O)Oc1ccc2cc(C3CCCCC3)[s+]([O-])c2c1 (centres unmarked) [Ex 42, Sulfamic acid, 2-cyclohexyl-benzothiophene-6-yl-1-oxide ester] | 7 ± 1.2 nM | 0.16 ± 0.03 |  | 0 | 38 |
| NS(=O)(=O)Oc1ccc2c(c1)S(=O)(=O)C(C1CCCCC1)=C2 [Ex 44, Sulfamic acid, 2-cyclohexyl-benzothiophene-6-yl-1,1-dioxide ester] | 10.9 ± 2.6 nM | 0.24 ± 0.05 | 180 | 0 | 70 |
| NS(=O)(=O)Oc1ccc2c(c1)S(=O)(=O)C(C1CCCCCCCCC1)=C2 [Ex 47, Sulfamic acid, 2-cyclodecyl-benzothiophene-6-yl-1,1-dioxide ester] | 52.1 ± 4.4 nM | 0.08 ± 0.01 | 102 | 4 | 62 |
| CC1CCC(C2=Cc3ccc(OS(N)(=O)=O)cc3S2(=O)=O)CC1 (centres unmarked) [Ex 48, Sulfamic acid, 2-(4-methylcyclohexyl)-benzothiophene-6-yl-1,1-dioxide ester] | 7.6 ± 1.3 nM | 0.09 ± 0.02 | 170 | 3 | 60 |
| CC1CCCCC1C1=Cc2ccc(OS(N)(=O)=O)cc2S1(=O)=O (centres unmarked) [Ex 49, Sulfamic acid, 2-(2-methylcyclohexyl)-benzothiophene-6-yl-1,1-dioxide ester] |  |  | 92 | 8 |  |
| CC1(C)CCCC1C1=Cc2ccc(OS(N)(=O)=O)cc2S1(=O)=O (centres unmarked) [Ex 50, Sulfamic acid, 2-(2,2-dimethylcyclopentyl)-benzothiophene-6-yl-1,1-dioxide ester] |  |  | 172 | 24 |  |
| CCCCCCC1=Cc2ccc(OS(N)(=O)=O)cc2S1(=O)=O [Ex 53, Sulfamic acid, 2-hexyl-benzothiophene-6-yl-1,1-dioxide ester] | 12.5 ± 3.3 nM |  | 98 |  |  |
| NS(=O)(=O)Oc1ccc2c(c1)S(=O)(=O)C(CC1CCCCC1)=C2 [Ex 54, Sulfamic acid, 2-cyclohexylmethyl-benzothiophene-6-yl-1,1-dioxide ester] | ~10 nM and 10 nM | 0.1 ± 0.03 | 132 | 6 | 49 |
| Cc1c(OS(N)(=O)=O)ccc2cc(C3CCCCCC3)sc12 [Ex 62, Sulfamic acid, 2-cycloheptyl-7-methyl-benzothiophene-6-yl ester] |  |  | 107 |  |  |
| NS(=O)(=O)Oc1ccc2c3c(sc2c1)CCCC3 [Ex 64, Sulfamic acid, 1,2,3,4-tetrahydro-dibenzothiophene-7-yl ester] | 566 ± 130 nM |  | 165 |  |  |
| Cc1c(OS(N)(=O)=O)ccc2c1S(=O)(=O)C(C1CCCCCC1)=C2 [Ex 65, Sulfamic acid, 2-cycloheptyl-7-methyl-benzothiophene-6-yl-1,1-dioxide ester] | 31.7 ± 9.9 nM |  | 90 |  |  |
